From article PMC9065678, “BI 1015550 is a PDE4B Inhibitor and a Clinical Drug Candidate for the Oral Treatment of Idiopathic Pulmonary Fibrosis” (Frontiers in Pharmacology, 2022) come the findings set out here.

Marks after values point to notes of the source that are not given here. Some results are limits rather than exact numbers.

One series deals with T1, PDE9A (Homo sapiens, UniProt O76083).
T1 construct: the full-length open reading frames of PDE1C; made in house; host or cells: SF9 insect cells (baculovirus, Bac-To-Bac, pFastbac)
T1 sequence (O76083 whole entry): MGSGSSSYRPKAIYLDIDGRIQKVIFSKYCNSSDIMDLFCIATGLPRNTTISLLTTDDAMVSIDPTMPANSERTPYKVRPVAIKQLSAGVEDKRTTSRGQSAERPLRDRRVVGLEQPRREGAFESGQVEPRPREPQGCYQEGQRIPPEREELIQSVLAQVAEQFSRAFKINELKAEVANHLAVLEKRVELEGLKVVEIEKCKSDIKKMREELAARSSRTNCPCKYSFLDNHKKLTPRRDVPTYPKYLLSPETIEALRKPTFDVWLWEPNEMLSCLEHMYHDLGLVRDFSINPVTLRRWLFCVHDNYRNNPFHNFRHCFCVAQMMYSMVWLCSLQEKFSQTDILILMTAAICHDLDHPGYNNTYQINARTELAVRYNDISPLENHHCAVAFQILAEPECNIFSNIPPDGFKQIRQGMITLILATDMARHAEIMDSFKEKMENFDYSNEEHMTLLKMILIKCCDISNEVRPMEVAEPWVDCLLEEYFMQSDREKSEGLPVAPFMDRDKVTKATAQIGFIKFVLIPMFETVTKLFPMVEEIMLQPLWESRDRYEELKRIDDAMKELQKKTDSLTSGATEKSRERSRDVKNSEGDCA
Put plainly: Recombinant PDE activity, scintillation proximity assay: PDE9A. It counts as biochemical. The note with it: substrate cGMP. An excerpt: For the preparation of human recombinant PDEs of interest, the Bac-To-Bac baculoviral expression system from Invitrogen (Carlsbad, CA, United States) was used according to the instruction manual. In short, the full-length open reading frames of PDE1C (National Center for Biotechnology Information Gene-Ref-Seq identifier NG_051183), PDE3A (NG_030033), PDE4A (NG_029594, AA 156–886), PDE4C (NG_029629), PDE7A (NG_029614), and PDE9A (NG_047067) were cloned into the plasmid vector pFastbac. For PDE4B and PDE4D, active site fragments were used (PDE4B NG_029038: AA 152–484, PDE4D NG_027957, AA 79–438). The plasmids were transformed into DH10Bac bacteria, SF9 insect cells were transfected with the bacmid DNA, and the resulting baculoviruses were stored and used for further rounds of infections. […] The protein content was measured and an equal volume of 87% (v/v) glycerol was added prior to freezing at −20°C. […] The reaction was stopped by addition of 50 µL of yttrium silicate scintillation proximity assay beads (17.8 mg/mL, 18 mM zinc sulfate in H2O) and the amount of produced [^3H]AMP/[^3H]GMP associated was determined using a Wallac Microbeta scintillation counter. […]
(In general: In a scintillation proximity assay essentially only radioactivity close to the scintillant gives light.)

In series [1] the test system is bleomycin-challenged mice. Put plainly: Therapeutic bleomycin mouse model of lung fibrosis. It counts as in vivo. On the procedure: Adult, test-naïve, male C57BL6/6J mice, aged 10–12 weeks from Charles River were used (weight 25–27 g). The model was performed essentially as described by [Ackermann et al. (2017)]. Briefly, bleomycin 1 mg/kg (Calbiochem, Darmstadt, Germany) was administered intratracheally in an application volume of 2 mL/kg body weight. Animals were weighed daily. […] BI 1015550 (at final doses of 2.5 and 12.5 mg/kg) was applied by oral gavage using a dose volume of 10 mL/kg twice daily (b.i.d.) from day 8 until day 13. On day 12, animals were anesthetized using 3–4% isoflurane, and lung density was assessed by micro-computed tomography (µCT) analysis with a Quantum FX µCT system (Perkin Elmer) with cardiac gating (without respiratory gating). Images were analyzed using MicroView 2.0 software (GE Healthcare). The Hounsfield unit (HU) corresponding to the peak of the HU-histogram for the segmented pixels was used as a measure of fibrosis. After µCT analysis, animals were allowed to awaken from anesthesia. On day 14, lung function [pressure-volume loops, FVC, and static lung compliance (Cstat)] was measured with a FlexiVent system (SCIREQ, Montreal, PQ, Canada). After the lung function measurement, animals were sacrificed by an overdose of Narcorene and lungs were lavaged with two-times 0.8 mL of PBS. BALF was used to determine differential cell counts (Sysmex XT-1800iVet) and the number of monocytes. Left lung lobes were fixed with 4% paraformaldehyde and inflated under 20 cm water pressure for 20 min. Samples were embedded in paraffin, sectioned (3 μm thickness), and stained for hematoxylin and eosin (HE) and Masson’s trichrome to assess general morphology and fibrotic change following standard histopathology operating protocols. Images were taken with an AxioCam MRm microscope camera using AxioVision software (Carl Zeiss Microscopy, LLC, White Plains, NY, United States). Lung sections stained with Masson’s trichrome were assessed for severity of pulmonary fibrosis using the Ashcroft score. The protocol used is therapeutic, i.e. treatment commenced at a time where lung fibrosis should have developed, in line with the recommendations of the American Thoracic Society panel on IPF models ([Jenkins et al., 2017]).

The nature of series [2]: Off-target screening, Cerep high-throughput profile and non-kinase enzyme profile.
[3] abbreviates: mice, 2.5 mg/kg b.i.d. oral day 8 to day 13, measured day 14.
Where [4] appears, read: mice, 12.5 mg/kg b.i.d. oral day 8 to day 13, measured day 14, 12.5 mg/kg.

The term IC50 denotes the midpoint of a concentration-inhibition curve.

For `[O-][S+]1CCc2nc(N3CCC(c4ncc(Cl)cn4)CC3)nc(NC3(CO)CCC3)c21` (stereo not shown) [BI 1015550], the IC50 at PDE9A is more than 100 µM. Further, the “Effect on BALF protein and monocytes, airway compliance” value in series [1] (bleomycin mice) is given as “no effects”. In addition, the “Effect on weight gain” value in series [1] (bleomycin mice, data not shown) was “no significant effect”. Moreover, the “Fibrosis < score, % improvement compared to bleomycin control” value stood at 2% in series [1] (mice, 2.5 mg/kg b.i.d. oral day 8 to day 13) and 11% in series [1] (mice, 12.5 mg/kg b.i.d. oral day 8 to day 13). In addition, the “Cstat (mL/cm H2O), % improvement compared to bleomycin control” value is on record as 21% in series [1] (setting [3]) and 40* % in series [1] (setting [4]). The figures for the “FVC (mL), % improvement compared to bleomycin control” value in series [1] (setting [3]) and in series [1] (setting [4]) were 18% and 41%, respectively. Moreover, the “Ratio tissue density, % improvement compared to bleomycin control” value in series [1] (mice, 2.5 mg/kg b.i.d. oral day 8 to day 13, µCT) was 4%; in series [1] (mice, 12.5 mg/kg b.i.d. oral day 8 to day 13, µCT), 39%. For the same compound, the “Improvement in PV loops” value in series [1] (mice, higher dose (12.5 mg/kg b.i.d.), p < 0.05) is on record as 40%. Besides, the Off-target effects entry in series [2] is recorded as “not shown any other off-target effects”.
